Laboratory results reported in patent US9452154B2, “Methods for treating HCV” (Gilead Sciences, Inc., priority 2010, dated 2016).
Several values for one entry are separate records, joined by “and”; a condition that tells them apart may be missing. Equal entries are not always repeated. Where two headings read alike, the source gives them in different places.

Key:
[1] = system: Genotype 1b replicon cells; test: Biological Example 6: compound concentration required to suppress replicon RNA by 1-1.5 log over 6 days (QRT-PCR); type: cell-based, HCV; conditions: 6 day assay
Method: Flasks were incubated at 37° C., media and compounds were refreshed every two days. After 6 days of incubation the replicon cells were collected for RNA extraction and replicon RNA QRT-PCR analysis.

[2] = system: Huh-7 cells carrying a HCV genotype 1a replicon; test: Biological Example 3: cytotoxicity in combination studies (MacSynergy II); conditions: in combination with Compound 4
[3] = system: NS3 GT1b mutant replicons; type: cell-based, HCV
[4] = system: NS3 GT1a mutant replicons; type: cell-based, HCV
HCV 1b replicon system = test: Biological Example 5: antiviral combination studies with Compound 6 (MacSynergy II); type: cell-based; conditions: in combination with Compound 6
[5] = system: Genotype 1b replicon cells; test: Biological Example 6: compound combination replicon cure assay; conditions: after 6 days treatment, G418 for 14 days; Compound 6 4 pM, Compound 4 1000 nM, Compound 1 10 nM, Compound 3 26.25 nM
HCV genotype 1a replicon [6] = test: Biological Example 3: antiviral combination studies with Compound 4 (MacSynergy II); conditions: in combination with Compound 4
HCV genotype 1a replicon [7] = test: Biological Example 3: HCV genotype 1a replicon assay, EC50; type: cell-based; conditions: Hepatitis C virus, 72 h, 3 days, read-out: EC50
[8] = Biological Example 3: cytotoxicity (calcein AM), CC50; type: cell-based; conditions: human, Huh-7 cells carrying a HCV genotype 1a replicon; HCV genotype 1a replicon cells; calcein AM
GT-1b Huh-lunet cells = test: Biological Example 4: antiviral combination studies with Compound 5 (MacSynergy II); type: cell-based, HCV; conditions: in combination with Compound 5, 1b replicon cells
[9] = Drug-drug interaction: exposure on co-administration with Compound 2
HCV 1b RLuc = test: microbe, parasite or virus in culture; type: cell-based; conditions: Hepatitis C virus, read-out: antiviral potency [EC50]
[10] = system: GT1b and GT1a mutant replicons; test: Biological Example 8: summary of cross resistance of mutant replicons; type: cell-based, HCV; conditions: all single NS3 PI-resistant mutants
Huh-luc replicon cells = test: Biological Example 5: cellular cytotoxicity (CellTiter-Glo); conditions: highest concentrations tested (column Concentration(s)); relative to untreated controls
Method: Replicon cells were seeded and treated with drugs as described for the antiviral combination studies above. After three day incubation at 37° C., the culture media was removed and cells were lysed and assayed for cytotoxicity using a CellTiter-Glo Luminescent Cell Viability Assay (Promega) according to the manufacturer's instructions. Relative Light Units were converted into percentages relative to the untreated controls (defined as 100%).

[11] = mutant R155K + Y488H (first line, r20)
[12] = mutant R155K + Y488H (second line, r26)

## CC[C@@H]1C[C@]1(NC(=O)[C@@H]1C[C@@H](Oc2cc(-c3csc(NC(C)C)n3)nc3c(Cl)c(OCCN4CCOCC4)ccc23)CC1C(=O)[C@@H](NC(=O)O[C@@H]1C[C@@H]2C[C@@H]2C1)C(C)(C)C)C(=O)O (some centres unmarked) [Compound 3]
[1]
  Compound concentration able to induce replicon RNA 1-1.5 log drop: 26.25 nM
[2]
  Antagonism Volume (cytotoxicity): 0 ± 0 nM^2%
  Interaction (cytotoxicity): Additivity (Additivity: ≦25 and >−25 nM^2%)
  Synergy Volume (cytotoxicity): 3 ± 5 nM^2%
[3]; mutant R155L
  fold change in EC50 vs wild-type GT1b: 1.2 fold and 0.9 fold
[4]; mutant A156T
  fold change in EC50 vs wild-type GT1a: >141 fold
[4]; mutant D168A
  fold change in EC50 vs wild-type GT1a: >300 fold
[4]; mutant D168E
  fold change in EC50 vs wild-type GT1a: 25.1 fold
[4]; mutant D168G
  fold change in EC50 vs wild-type GT1a: >138 fold
[4]; mutant D168H
  fold change in EC50 vs wild-type GT1a: >250 fold
[4]; mutant D168N
  fold change in EC50 vs wild-type GT1a: 20.5 fold
[4]; mutant D168V
  fold change in EC50 vs wild-type GT1a: >156 fold
[4]; mutant D168Y
  fold change in EC50 vs wild-type GT1a: >175 fold
[4]; mutant R155I
  fold change in EC50 vs wild-type GT1a: 0.9 fold
[4]; mutant R155K
  fold change in EC50 vs wild-type GT1a: >150 fold
[4]; mutant R155K + L31M
  fold change in EC50 vs wild-type GT1a: >100 fold
[4]; mutant R155K + L31M + Y448H
  fold change in EC50 vs wild-type GT1a: >145 fold
[4]; mutant R155K + M28T
  fold change in EC50 vs wild-type GT1a: >100 fold
[4]; mutant R155K + M28T + Y448H
  fold change in EC50 vs wild-type GT1a: 89.0 fold
[4]; mutant R155K + Q30H + Y448H
  fold change in EC50 vs wild-type GT1a: >130 fold
[4]; mutant R155K + Q30R
  fold change in EC50 vs wild-type GT1a: >100 fold
[4]; mutant R155K + Y93H
  fold change in EC50 vs wild-type GT1a: >100 fold
[4]; [11]
  fold change in EC50 vs wild-type GT1a: >130 fold
[4]; [12]
  fold change in EC50 vs wild-type GT1a: >100 fold
[4]; mutant R155M
  fold change in EC50 vs wild-type GT1a: 1.5 fold
[4]; mutant R155S
  fold change in EC50 vs wild-type GT1a: 4.0 fold
[4]; mutant R155T
  fold change in EC50 vs wild-type GT1a: 2.3 fold
[4]; mutant R155W
  fold change in EC50 vs wild-type GT1a: 32.1 fold
[4]; mutant R155k + Q30H
  fold change in EC50 vs wild-type GT1a: >100 fold
HCV 1b replicon system
  Antagonism Volume: −0.1 ± 0.2 nM^2
  Interaction: Strong Synergy
  Synergy Volume: 132 nM^2 and 132 ± 44 nM^2
[5]
  Uncured colony number: 989
HCV genotype 1a replicon [6]
  Antagonism Volume: −3 ± 2 nM^2%
  Synergy Volume: 26 ± 6 nM^2%
HCV genotype 1a replicon [7]
  EC50: 49 ± 18 nM
[8]
  CC50 at 3 days: > 22200 nM
GT-1b Huh-lunet cells
  Antagonism Volume: −2 ± 2 nM^2
  Interaction: Additive
  Synergy Volume: 19 ± 13 nM^2

## COC(=O)N[C@H](C(=O)N1CC2(CC2)C[C@H]1c1ncc(-c2ccc3c(c2)C(F)(F)c2cc(-c4ccc5nc([C@@H]6[C@H]7CC[C@H](C7)N6C(=O)[C@@H](NC(=O)OC)C(C)C)[nH]c5c4)ccc2-3)[nH]1)C(C)C [Compound 6, (1-{3-[6-(9,9-Difluoro-7-{2-[5-(2-methoxycarbonylamino-3-methyl-butyryl)-5-aza-spiro[2.4]hept-6-yl]-3H-imidazol-4-yl}-9H-fluoren-2-yl)-1H-benzoimidazol-2-yl]-2-aza-bicyclo[2.2.1]heptane-2-carbonyl}-2-methyl-propyl)-carbamic acid methyl ester]
[1]
  Compound concentration able to induce replicon RNA 1-1.5 log drop: 0.004 nM
[2]
  Antagonism Volume (cytotoxicity): 0 ± 0 nM^2%
  Interaction (cytotoxicity): Additivity (Additivity: ≦25 and >−25 nM^2%)
  Synergy Volume (cytotoxicity): 8 ± 4 nM^2%
[9]
  increase of exposure when combined with Compound 2: approximately 5 ×
[3]; mutant A156D
  fold change in EC50 vs wild-type GT1b: 0.4 fold
[3]; mutant A156G
  fold change in EC50 vs wild-type GT1b: 0.9 fold
[3]; mutant A156T
  fold change in EC50 vs wild-type GT1b: 0.4 fold
[3]; mutant A156V
  fold change in EC50 vs wild-type GT1b: 0.4 fold
[3]; mutant D168A
  fold change in EC50 vs wild-type GT1b: 0.8 fold
[3]; mutant D168E
  fold change in EC50 vs wild-type GT1b: 1.0 fold
[3]; mutant D168E + L31V + Y448H
  fold change in EC50 vs wild-type GT1b: >210 fold
[3]; mutant D168E + Y93H + Y448H
  fold change in EC50 vs wild-type GT1b: >613 fold
[3]; mutant D168E + Y448H
  fold change in EC50 vs wild-type GT1b: 0.7 fold
[3]; mutant D168G
  fold change in EC50 vs wild-type GT1b: 0.6 fold
[3]; mutant D168H
  fold change in EC50 vs wild-type GT1b: 1.2 fold
[3]; mutant D168H + C445F
  fold change in EC50 vs wild-type GT1b: 0.3 fold
[3]; mutant D168L + C445F
  fold change in EC50 vs wild-type GT1b: 0.4 fold
[3]; mutant D168N
  fold change in EC50 vs wild-type GT1b: 0.9 fold
[3]; mutant D168T
  fold change in EC50 vs wild-type GT1b: 0.8 fold
[3]; mutant D168V
  fold change in EC50 vs wild-type GT1b: 0.9 fold
[3]; mutant D168V + C445F
  fold change in EC50 vs wild-type GT1b: 0.4 fold
[3]; mutant D168V + L31V + Y448H
  fold change in EC50 vs wild-type GT1b: >126 fold
[3]; mutant D168V + Y93H + Y448H
  fold change in EC50 vs wild-type GT1b: >664 fold
[3]; mutant D168V + Y448H
  fold change in EC50 vs wild-type GT1b: 0.5 fold
[3]; mutant D168Y
  fold change in EC50 vs wild-type GT1b: 0.7 fold
[3]; mutant L31V + D168E
  fold change in EC50 vs wild-type GT1b: 228.7 fold
[3]; mutant L31V + D168V
  fold change in EC50 vs wild-type GT1b: 117.5 fold
[3]; mutant R155C
  fold change in EC50 vs wild-type GT1b: 0.9 fold
[3]; mutant R155G
  fold change in EC50 vs wild-type GT1b: 0.7 fold
[3]; mutant R155K
  fold change in EC50 vs wild-type GT1b: 2.3 fold
[3]; mutant R155L
  fold change in EC50 vs wild-type GT1b: 0.7 fold
[3]; mutant R155Q
  fold change in EC50 vs wild-type GT1b: 0.7 fold
[3]; mutant R155W
  fold change in EC50 vs wild-type GT1b: 0.4 fold
[3]; mutant Y93H + D168E
  fold change in EC50 vs wild-type GT1b: >570 fold
[3]; mutant Y93H + D168V
  fold change in EC50 vs wild-type GT1b: >1140 fold
[4]; mutant A156T
  fold change in EC50 vs wild-type GT1a: 0.2 fold
[4]; mutant D168A
  fold change in EC50 vs wild-type GT1a: 1.1 fold
[4]; mutant D168E
  fold change in EC50 vs wild-type GT1a: 1.3 fold
[4]; mutant D168G
  fold change in EC50 vs wild-type GT1a: 0.8 fold
[4]; mutant D168H
  fold change in EC50 vs wild-type GT1a: 1.1 fold
[4]; mutant D168N
  fold change in EC50 vs wild-type GT1a: 1.2 fold
[4]; mutant D168V
  fold change in EC50 vs wild-type GT1a: 1.2 fold
[4]; mutant D168Y
  fold change in EC50 vs wild-type GT1a: 0.8 fold
[4]; mutant R155I
  fold change in EC50 vs wild-type GT1a: 0.5 fold
[4]; mutant R155K
  fold change in EC50 vs wild-type GT1a: 0.6 fold
[4]; mutant R155K + L31M
  fold change in EC50 vs wild-type GT1a: 96.9 fold
[4]; mutant R155K + L31M + Y448H
  fold change in EC50 vs wild-type GT1a: >330 fold
[4]; mutant R155K + M28T
  fold change in EC50 vs wild-type GT1a: 12.3 fold
[4]; mutant R155K + M28T + Y448H
  fold change in EC50 vs wild-type GT1a: 53.0 fold
[4]; mutant R155K + Q30H + Y448H
  fold change in EC50 vs wild-type GT1a: 55.0 fold
[4]; mutant R155K + Q30R
  fold change in EC50 vs wild-type GT1a: 85.3 fold
[4]; mutant R155K + Y93H
  fold change in EC50 vs wild-type GT1a: >3000 fold
[4]; [11]
  fold change in EC50 vs wild-type GT1a: 1.1 fold
[4]; [12]
  fold change in EC50 vs wild-type GT1a: 0.5 fold
[4]; mutant R155M
  fold change in EC50 vs wild-type GT1a: 0.3 fold
[4]; mutant R155S
  fold change in EC50 vs wild-type GT1a: 0.3 fold
[4]; mutant R155T
  fold change in EC50 vs wild-type GT1a: 0.3 fold
[4]; mutant R155W
  fold change in EC50 vs wild-type GT1a: 0.7 fold
[4]; mutant R155k + Q30H
  fold change in EC50 vs wild-type GT1a: 49.4 fold
HCV 1b RLuc
  EC50: 0.0045 nM
[10]
  susceptibility of mutants: full susceptibility
HCV genotype 1a replicon [6]
  Antagonism Volume: −7 ± 7 nM^2%
  Interaction: Additivity (Additivity: ≦25 and >−25 nM^2%)
  Synergy Volume: 19 ± 17 nM^2%
HCV genotype 1a replicon [7]
  EC50: 0.033 ± 0.011 nM
[8]
  CC50 at 3 days: > 44400 nM
GT-1b Huh-lunet cells
  Antagonism Volume: 0 ± 0 nM^2
  Synergy Volume: 34 ± 19 nM^2
Huh-luc replicon cells
  Cell Viability %: 99 ± 1%
